The values that follow come from patent US20240150334A1, “HSD17B13 INHIBITORS AND/OR DEGRADERS” (Pfizer Inc., priority 2022, published 2024).

Structures can show the parent of a compound that is named as a salt.

Sequence of wild type human HSD17B13 (Q7Z5P4 20-300): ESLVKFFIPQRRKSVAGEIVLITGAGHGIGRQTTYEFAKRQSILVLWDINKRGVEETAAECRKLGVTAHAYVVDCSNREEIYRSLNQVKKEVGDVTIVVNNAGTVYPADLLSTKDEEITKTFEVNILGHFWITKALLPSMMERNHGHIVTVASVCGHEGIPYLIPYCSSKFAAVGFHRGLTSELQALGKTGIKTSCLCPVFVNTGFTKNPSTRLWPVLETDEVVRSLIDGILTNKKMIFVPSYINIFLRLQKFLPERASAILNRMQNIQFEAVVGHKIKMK

This assay concerns the target wild type human HSD17B13 (Homo sapiens (Human), UniProt Q7Z5P4). The assay is described as follows: HEK_Beta-Est LCMS_IC50_Tekcel, whole-cell HEK-HSD17B13 inhibition assay, estrone production by LCMS. It counts as cell-based. Conditions: geometric mean, HEK cells stably expressing wild type human HSD17B13, 25 μM FAC beta-estradiol, read-out: HEK_Beta-Est LCMS_IC50—Tekcel GMean IC50. On the procedure: HEK_Beta-Est LCMS_IC50_Tekcel
Inhibition potency of test compounds was determined using a whole-cell HEK-HSD17B13 inhibition assay, utilizing a LCMS readout.
HSD17B13 uses the oxidized form of nicotinamide adenine dinucleotide (NAD+) as a cofactor during metabolism of beta-estradiol (substrate), converting NAD+ to the reduced form (NADH) and beta-estradiol to its product (estrone). Estrone production is quantified by LCMS, and used as a measure of HSD17B13 enzyme activity.
([…]: 5% CO2). […] Growth media was then removed from the cell plates and replaced with 10 μL of 2×FAC test compound, and incubated for 1 hour (with lid) at 37° C. […] The reaction was incubated for 2 hours (with lid) at 37° C. […] Amount of product (estrone) was then quantified by LCMS. Data expressed as product area ratio (PAR) were then normalized to control wells using Activity Base (IDBS). Zero percent effect (ZPE) was defined as PAR generated from uninhibited HSD17B13 (vehicle control).
Turning to `O=C(NC[C@]12CC[C@](c3nc(-c4ncc(C(F)(F)F)cn4)no3)(CC1)CC2)c1cc(F)c(O)c(F)c1` [Example 203, 3,5-difluoro-4-hydroxy-N-[(4-{3-[5-(trifluoromethyl)pyrimidin-2-yl]-1,2,4-oxadiazol-5-yl}bicyclo[2.2.2]octan-1-yl)methyl]benzamide], the half-maximal inhibitory concentration (IC50) turned out to be 0.098 µM.

Regarding `O=C(NC[C@H]1CC[C@H](n2cc3cc(Cl)ccc3n2)CC1)c1cc(F)c(O)c(F)c1F` [Example 26, N-{[(1r,4r)-4-(5-chloro-2H-indazol-2-yl)cyclohexyl]methyl}-2,3,5-trifluoro-4-hydroxybenzamide], the concentration for half-maximal inhibition (IC50) is 0.19 µM.

Turning to `O=C(NC[C@H]1CC[C@H](n2cc3cnc(-c4cccnc4)cc3n2)CC1)c1cc(F)c(O)c(F)c1` [Example 189, 3,5-difluoro-4-hydroxy-N-({(1r,4r)-4-[6-(pyridin-3-yl)-2H-pyrazolo[4,3-c]pyridin-2-yl]cyclohexyl}methyl) benzamide], the IC50 was determined as 0.43 µM.

As to `O=C(NC[C@]12CC[C@](n3cc4ccc(-c5cncnc5)cc4n3)(CC1)CC2)c1cc(F)c(O)c(F)c1` [Example 206, 3,5-difluoro-4-hydroxy-N-({4-[6-(pyrimidin-5-yl)-2H-indazol-2-yl]bicyclo [2.2.2]octan-1-yl}methyl)benzamide], the IC50 is 0.15 µM.

With `O=C(NC[C@H]1CC[C@H](n2cc3ccc(-c4nccs4)cc3n2)CC1)c1cc(F)c(O)c(F)c1` [Example 110, 3,5-difluoro-4-hydroxy-N-({(1r,4r)-4-[6-(1,3-thiazol-2-yl)-2H-indazol-2-yl]cyclohexyl}methyl) benzamide], the concentration for half-maximal inhibition (IC50) was 0.11 µM.

As to `O=C(NC[C@]12CC[C@@](n3cc4ccc(-c5ncccn5)cc4n3)(CC1)CC2)c1cc(F)c(O)c(F)c1F` [Example 7, 2,3,5-Trifluoro-4-hydroxy-N-({4-[6-(pyrimidin-2-yl)-2H-indazol-2-yl]bicyclo[2.2.2]octan-1-yl}methyl)benzamide], the 50% inhibitory concentration (IC50) is 0.18 µM.

`Cn1cc(-c2ccc3nc([C@H]4CC[C@H](CNC(=O)c5cc(F)c(O)c(F)c5F)CC4)cn3c2)cn1` [Example 29, 2,3,5-trifluoro-4-hydroxy-N-({(1r,4r)-4-[6-(1-methyl-1H-pyrazol-4-yl)imidazo[1,2-a]pyridin-2-yl]cyclohexyl}methyl)benzamide]: the IC50 amounted to 0.35 µM.

With `O=C(NC[C@H]1CC[C@H](n2cc3ccc(-c4cnc(C(F)(F)F)cn4)cc3n2)CC1)c1cc(F)c(O)c(F)c1` [Example 78, 3,5-difluoro-4-hydroxy-N-{[(1r,4r)-4-{6-[5-(trifluoromethyl)pyrazin-2-yl]-2H-indazol-2-yl}cyclohexyl]methyl} benzamide], the IC50 amounted to 0.19 µM.

Take `Cc1nc(-c2ccc3cn([C@H]4CC[C@H](CNC(=O)c5cc(F)c(O)c(F)c5)CC4)nc3c2)cs1` [Example 94, 3,5-difluoro-4-hydroxy-N-({(1r,4r)-4-[6-(2-methyl-1,3-thiazol-4-yl)-2H-indazol-2-yl]cyclohexyl}methyl) benzamide]: the half-inhibitory concentration (IC50) was 0.14 µM.

`O=C(NC[C@H]1CC[C@H](n2cc3ccc(-c4cnn5ccccc45)cc3n2)CC1)c1cc(F)c(O)c(F)c1` [Example 80, 3,5-difluoro-4-hydroxy-N-({(1r,4r)-4-[6-(pyrazolo[1,5-a]pyridin-3-yl)-2H-indazol-2-yl]cyclohexyl}methyl) benzamide, trifuoroacetate salt]: the IC50 came to 0.2 µM.

As to `Cn1cc(-c2ccc3cn([C@]45CC[C@](CNC(=O)c6cc(F)c(O)c(F)c6F)(CC4)CC5)nc3c2)cn1` [Example 209, 2,3,5-trifluoro-4-hydroxy-N-({4-[6-(1-methyl-1H-pyrazol-4-yl)-2H-indazol-2-yl]bicyclo[2.2.2]octan-1-yl}methyl)benzamide], the IC50 amounted to 0.15 µM.

Turning to `O=C(NC[C@H]1CC[C@H](n2cc3ccc(-c4cnn(CC(F)F)c4)cc3n2)CC1)c1cc(F)c(O)c(F)c1` [Example 10, N-{[(1r,4r)-4-{6-[1-(2,2-Difluoroethyl)-1H-pyrazol-4-yl]-2H-indazol-2-yl}cyclohexyl]methyl}-3,5-difluoro-4-hydroxybenzamide, trifluoroacetate salt], the IC50 was 0.12 µM.

For `CC(C)(C)OC(=O)N[C@]12CC[C@](CNC(=O)c3cc(F)c(O)c(F)c3)(CC1)CC2` [Example 192, tert-butyl {4-[(3,5-difluoro-4-hydroxybenzamido)methyl]bicyclo[2.2.2]octan-1-yl}carbamate], the IC50 stood at 0.48 µM.

Take `O=C(NC[C@H]1CC[C@H](n2cc3ccc(-c4cnc5[nH]ccc5c4)cc3n2)CC1)c1cc(F)c(O)c(F)c1` [Example 112, 3,5-difluoro-4-hydroxy-N-({(1r,4r)-4-[6-(1H-pyrrolo[2,3-b]pyridin-5-yl)-2H-indazol-2-yl]cyclohexyl}methyl) benzamide, trifluoroacetate salt]: the IC50 was 0.22 µM.

In the case of `O=C(NC[C@H]1CC[C@H](n2cc3ccc(-n4ccnc4)cc3n2)CC1)c1cc(F)c(O)c(F)c1F` [Example 166, 2,3,5-trifluoro-4-hydroxy-N-({(1r,4r)-4-[6-(1H-imidazol-1-yl)-2H-indazol-2-yl]cyclohexyl}methyl) benzamide, trifluoroacetate salt], the 50% inhibitory concentration (IC50) amounted to 0.41 µM.

On to `O=C(NC[C@H]1CC[C@H](n2cc3ccc(-c4cnsc4)cc3n2)CC1)c1cc(F)c(O)c(F)c1` [Example 100, 3,5-difluoro-4-hydroxy-N-({(1r,4r)-4-[6-(1,2-thiazol-4-yl)-2H-indazol-2-yl]cyclohexyl}methyl)benzamide], for which the IC50 turned out to be 0.065 µM.

On to `O=C(NC[C@H]1CC[C@H](n2cc3ccc(-c4ccn5ccnc5c4)cc3n2)CC1)c1cc(F)c(O)c(F)c1` [Example 117, 3,5-difluoro-4-hydroxy-N-({(1r,4r)-4-[6-(imidazo[1,2-a]pyridin-7-yl)-2H-indazol-2-yl]cyclohexyl}methyl) benzamide, trifluoroacetate salt], for which the concentration for half-maximal inhibition (IC50) came to 0.18 µM.

Turning to `COc1ncc(-c2cc3cn([C@H]4CC[C@H](CNC(=O)c5cc(F)c(O)c(F)c5)CC4)nc3cn2)cn1` [Example 201, 3,5-difluoro-4-hydroxy-N-({(1r,4r)-4-[5-(2-methoxypyrimidin-5-yl)-2H-pyrazolo[3,4-c]pyridin-2-yl]cyclohexyl}methyl) benzamide, trifluoroacetate salt], the IC50 was found to be 0.35 µM.

For the compound `O=C(NC[C@]12CC[C@](n3cc4ccc(-c5cnccn5)cc4n3)(CC1)CC2)c1cc(F)c(O)c(F)c1` [Example 208, 3,5-difluoro-4-hydroxy-N-({4-[6-(pyrazin-2-yl)-2H-indazol-2-yl]bicyclo [2.2.2]octan-1-yl}methyl)benzamide], the IC50 was 0.12 µM.

Regarding `O=C(NC[C@H]1CC[C@H](n2cc3ccc(-c4cnoc4)cc3n2)CC1)c1cc(F)c(O)c(F)c1` [Example 111, 3,5-difluoro-4-hydroxy-N-({(1r,4r)-4-[6-(1,2-oxazol-4-yl)-2H-indazol-2-yl]cyclohexyl}methyl) benzamide], the half-inhibitory concentration (IC50) turned out to be 0.081 µM.

Take `O=C(NC[C@H]1CC[C@H](n2cc3ccc(-c4cn5ccccc5n4)cc3n2)CC1)c1cc(F)c(O)c(F)c1` [Example 103, 3,5-difluoro-4-hydroxy-N-({(1r,4r)-4-[6-(imidazo[1,2-a]pyridin-2-yl)-2H-indazol-2-yl]cyclohexyl}methyl) benzamide, trifluoroacetate salt]: the IC50 turned out to be 0.36 µM.

As to `COc1cc(-c2ccc3cn([C@H]4CC[C@H](CNC(=O)c5cc(F)c(O)c(F)c5)CC4)nc3c2)ccn1` [Example 106, 3,5-difluoro-4-hydroxy-N-({(1r,4r)-4-[6-(2-methoxypyridin-4-yl)-2H-indazol-2-yl]cyclohexyl}methyl) benzamide, trifluoroacetate salt], the IC50 was 0.15 µM.

Take `O=C(NC[C@H]1CC[C@H](n2cc3ccc(-c4ncns4)cc3n2)CC1)c1cc(F)c(O)c(F)c1` [Example 82, 3,5-difluoro-4-hydroxy-N-({(1r,4r)-4-[6-(1,2,4-thiadiazol-5-yl)-2H-indazol-2-yl]cyclohexyl}methyl) benzamide]: the IC50 came to 0.12 µM.

`Cc1cn(-c2ccc3cn([C@H]4CC[C@H](CNC(=O)c5cc(F)c(O)c(F)c5F)CC4)nc3c2)cn1` [Example 163, 2,3,5-trifluoro-4-hydroxy-N-({(1r,4r)-4-[6-(4-methyl-1H-imidazol-1-yl)-2H-indazol-2-yl]cyclo-hexyl}methyl) benzamide]: the IC50 turned out to be 0.33 µM.

Take `O=C(NC[C@H]1CC[C@H](n2cc3ccc(-c4cc(C5CC5)ncn4)cc3n2)CC1)c1cc(F)c(O)c(F)c1` [Example 93, N-({(1r,4r)-4-[6-(6-cyclopropylpyrimidin-4-yl)-2H-indazol-2-yl]cyclohexyl}methyl)-3,5-difluoro-4-hydroxybenzamide]: the IC50 is 0.18 µM.

`O=C(NC[C@H]1CC[C@H](n2cc3ccc(-c4cnn(CCO)c4)cc3n2)CC1)c1cc(F)c(O)c(F)c1` [Example 160, 3,5-difluoro-4-hydroxy-N-{[(1r,4r)-4-{6-[1-(2-hydroxyethyl)-1H-pyrazol-4-yl]-2H-indazol-2-yl}cyclo-hexyl]methyl} benzamide, trifluoroacetate salt]: the concentration for half-maximal inhibition (IC50) amounted to 0.4 µM.

Consider `CC(C)c1ncc(-c2ccc3cn([C@H]4CC[C@H](CNC(=O)c5cc(F)c(O)c(F)c5)CC4)nc3c2)o1` [Example 121, 3,5-difluoro-4-hydroxy-N-{[(1r,4r)-4-{6-[2-(propan-2-yl)-1,3-oxazol-5-yl]-2H-indazol-2-yl}cyclohexyl]methyl} benzamide], for which the IC50 worked out at 0.15 µM.
